Key:
[1] = system: blood glucose; assay: Glucose lowering after i.v. injection in minipigs with and without a-MM infusion; format: in vivo, non-diabetic male Yucatan minipigs; settings: 0.1 U/kg i.v.; for overall bioactivity (glucose lowering): minipigs
[2] = system: blood glucose; assay: Blood glucose depression profile after subcutaneous injection; format: in vivo, fasted normal non-diabetic rats (Male Sprague-Dawley); settings: sub-Q
[3] = Sugar-dependent i.v. elimination half-life in minipigs; format: in vivo, non-diabetic, male miniature swine (Yucatan strain); settings: pigs, 0.1 U/kg i.v.
[4] = system: blood glucose; assay: Sub-Q injection in non-diabetic and alloxan-diabetic minipigs; format: in vivo, Yucatan minipigs
[5] = Accelerated stability testing (AST) aggregation assay; format: physicochemical; settings: PBS buffer
[6] = system: serum insulin and blood glucose levels; assay: Effect of IP exogenous saccharide 15 minutes after sub-Q conjugate on PK/PD profile; format: in vivo, fasted normal non-diabetic rats (Male Sprague-Dawley)
[7] = system: serum insulin and blood glucose levels; assay: Effect of a-MM co-injected at the local sub-Q injection site; format: in vivo, non-diabetic, male SD rats; settings: 5 U/kg sub-Q
Protocol: In view of the data described in Example 42, we set out to determine whether the alpha-methyl mannose (a-MM) induced increase in serum conjugate concentration and bioactivity was a result of an increased rate of absorption from the subcutaneous injection site. The high affinity TSAT-C6-AETM-2 conjugate I-2 was used for this experiment. First, the conjugate was diluted to a concentration of 5 U/ml (0.2 mg/ml insulin equivalent) using either a buffered saline solution or a buffered saline solution containing 1 M a-MM. Each solution was injected sub-Q at a dose of 5 U/kg into the back of the neck of each of three non-diabetic, male SD rats at time 0 and blood samples were collected via tail vein bleeding at 0 minutes and at 15, 30, 45, 60, 90, 120, 150, 180, 240, and 300 minutes after injection. […] In this experiment, rats that received the a-MM conjugate solution also received an injection of buffered saline solution sub-Q at a separate hind quarter injection site at 15 minutes. Rats that received the saline conjugate solution also received an injection of a-MM solution sub-Q at a separate hind quarter injection site at 15 minutes.

[8] = 0.25 ml of 20 U equivalent insulin/ml
[9] = sub-Q, II-2 0.25, 0.50, 1.00 U/kg, RHI 0.063 and 0.125 U/kg

Substance: I-12: human insulin conjugated at A1 to TSAT-C6 framework with two AETM ligands
- overall bioactivity (glucose lowering) [1]: slightly more effective in lowering glucose than conjugate I-6

Substance: insulin-dextran: comparative insulin-dextran (MW~70K) conjugate made by CNBr coupling per U.S. Patent Publication No. 20040202719
- duration of serum glucose depression post injection [2, 8]: at least five hours
- time to reach the glucose nadir (Tnadir) [2, 8]: about 3 hours

Substance: II-2: A1,B29-disubstituted insulin, TSAT-C6 frameworks, four AETM ligands
- increase in t1/2 in the presence of a-MM [3]: ~10 fold
- area over the glucose lowering curve in the presence of a-MM vs. absence of sugar [1]: approximately 2.6 ×
- a-MM induced bioactivity ([1]; a-MM infusion 25% w/v 80 ml/h): increased the a-MM induced bioactivity
- overall bioactivity (glucose lowering) [1]: reduced overall bioactivity
- duration of hypoglycemia-free glucose control in diabetic minipigs ([4]; single injection of approximately 0.5 U/kg): 6 to 8 h
- blood glucose in alloxan-diabetic, hyperglycemic minipigs [4, 9]: significant dose-dependent reduction in blood glucose levels
- hypoglycemia / glucose-lowering in non-diabetic minipigs [4, 9]: absolutely no hypoglycemia or signs of glucose-lowering

Substance: I-16: human insulin conjugated at B1 to TSPE framework with three AEM ligands
- AST aggregation stability compared with RHI [5]: greatly enhanced stability over pharmaceutical grade RHI

Substance: I-2: human insulin conjugated at B1 to TSAT-C6 framework with two AETM ligands
- effect of IP L-fucose on serum insulin profile ([6]; L-fucose IP 15 minutes after sub-Q injection): alpha-methyl mannose and L-fucose appear to exhibit the same kind of effect
- change in PK/PD profile from IP injection of alpha-methyl mannose vs. saline ([6]; a-MM IP 15 minutes after sub-Q injection): very significant (p<0.05)
- effect of IP galactose on serum insulin profile ([6]; galactose IP 15 minutes after sub-Q injection): no effect as compared to saline
- effect of IP glucose on serum insulin profile ([6]; glucose IP 15 minutes after sub-Q injection): small effect
- serum insulin and blood glucose with 1M a-MM co-injected vs. buffered saline [7]: the serum insulin levels do not increase and the blood glucose levels do not decrease

Substance: insulin-glycogen: comparative insulin-oyster glycogen (Type II) conjugate per U.S. Patent Application Publication No. 20070099820
- glucose depression profile / glucose lowering response ([2]; 2.5-5 U/kg): lower glucose levels much more rapidly and to a greater extent

Reference: patent publication US10398781B2, “Conjugate based systems for controlled drug delivery” (SmartCells, Inc., priority 2009, dated 2019)
